Measurements taken from the NIST ThermoML archive (doi:10.1007/s10765-005-5570-x).
“And” between values parts separate entries of the source, which are not always exact repeats. Equal entries are not always repeated.

Experiments:
[1] = Liquid
[2] = xn = mol fraction of the nth substance listed; settings: 101.33 kPa, Liquid, x2 = 0

ClCCCl [1,2-dichloroethane]
[1]
Settings	mass density [kg/m3]
288.15 K, 101.33 kPa	1260.13
298.15 K, 101.33 kPa	1246.59
298.15 K, 200 kPa	1245.68
298.15 K, 500 kPa	1246.02
298.15 K, 1100 kPa	1246.54
298.15 K, 2000 kPa	1247.41
298.15 K, 3100 kPa	1248.51
298.15 K, 4100 kPa	1249.53
298.15 K, 5100 kPa	1250.32
298.15 K, 6100 kPa	1251.22
298.15 K, 7100 kPa	1252.27
298.15 K, 8000 kPa	1253.07
298.15 K, 8900 kPa	1254
298.15 K, 10100 kPa	1255.18
298.15 K, 12000 kPa	1256.96
298.15 K, 13900 kPa	1258.84
298.15 K, 15700 kPa	1260.48
298.15 K, 17700 kPa	1262.37
298.15 K, 19700 kPa	1264.29
308.15 K, 101.33 kPa	1231.27

ClCCBr [1-bromo-2-chloroethane]
[1]
Settings	mass density [kg/m3]
288.15 K, 101.33 kPa	1744.36
298.15 K, 101.33 kPa	1727.88
298.15 K, 200 kPa	1726.08
298.15 K, 500 kPa	1726.48
298.15 K, 900 kPa	1726.94
298.15 K, 2000 kPa	1728.17
298.15 K, 2900 kPa	1729.14
298.15 K, 4100 kPa	1730.57
298.15 K, 4800 kPa	1731.35
298.15 K, 6000 kPa	1732.77
298.15 K, 6800 kPa	1733.74
298.15 K, 8000 kPa	1735.1
298.15 K, 8700 kPa	1736.13
298.15 K, 9600 kPa	1737.17
298.15 K, 11700 kPa	1739.6
298.15 K, 13900 kPa	1742.49
298.15 K, 15600 kPa	1744.52
298.15 K, 17600 kPa	1747.12
298.15 K, 19400 kPa	1749.48
308.15 K, 101.33 kPa	1708.86

ClCBr [bromochloromethane]
[1]
Settings	mass density [kg/m3]
288.15 K, 101.33 kPa	1945.94
298.15 K, 101.33 kPa	1924.88
298.15 K, 200 kPa	1923.54
298.15 K, 500 kPa	1923.88
298.15 K, 1000 kPa	1924.64
298.15 K, 2100 kPa	1926.24
298.15 K, 2900 kPa	1927.62
298.15 K, 3800 kPa	1928.77
298.15 K, 4900 kPa	1930.51
298.15 K, 5900 kPa	1932.03
298.15 K, 7000 kPa	1933.43
298.15 K, 8000 kPa	1934.88
298.15 K, 8800 kPa	1936.36
298.15 K, 9800 kPa	1937.83
298.15 K, 11800 kPa	1940.79
298.15 K, 13900 kPa	1944.25
298.15 K, 15700 kPa	1947.01
298.15 K, 17800 kPa	1950.26
298.15 K, 19600 kPa	1953.16
308.15 K, 101.33 kPa	1900.86

BrCBr [dibromomethane]
[1]
Settings	mass density [kg/m3]
288.15 K, 101.33 kPa	2501.88
298.15 K, 101.33 kPa	2478.37
298.15 K, 200 kPa	2477.56
298.15 K, 300 kPa	2477.92
298.15 K, 600 kPa	2478.35
298.15 K, 1000 kPa	2478.9
298.15 K, 2100 kPa	2480.41
298.15 K, 3000 kPa	2481.88
298.15 K, 4100 kPa	2483.5
298.15 K, 5000 kPa	2484.84
298.15 K, 5900 kPa	2486.26
298.15 K, 6900 kPa	2487.82
298.15 K, 8000 kPa	2489.54
298.15 K, 8800 kPa	2490.92
298.15 K, 9800 kPa	2492.58
298.15 K, 11800 kPa	2494.98
298.15 K, 13700 kPa	2498.59
298.15 K, 15800 kPa	2502.33
298.15 K, 15900 kPa	2502.49
298.15 K, 17700 kPa	2505.74
298.15 K, 19200 kPa	2508.69
298.15 K, 19300 kPa	2508.84
308.15 K, 101.33 kPa	2451.74

CCOC(C)=O [ethyl acetate]
[1]
Settings	mass density
288.15 K, 101.33 kPa	906.71 kg/m3
298.15 K, 101.33 kPa	894.97 kg/m3
298.15 K, 200 kPa	894.2 kg/m3
298.15 K, 600 kPa	894.65 kg/m3
298.15 K, 1100 kPa	895.18 kg/m3
298.15 K, 2100 kPa	896.14 kg/m3
298.15 K, 2900 kPa	897.1 kg/m3
298.15 K, 4000 kPa	898.2 kg/m3
298.15 K, 5100 kPa	899.22 kg/m3
298.15 K, 6000 kPa	900.19 kg/m3
298.15 K, 7000 kPa	901.11 kg/m3
298.15 K, 8000 kPa	902.12 kg/m3
298.15 K, 8900 kPa	902.88 kg/m3
298.15 K, 9900 kPa	903.88 kg/m3
298.15 K, 11700 kPa	905.54 kg/m3
298.15 K, 13800 kPa	907.54 kg/m3
298.15 K, 16000 kPa	909.45 kg/m3
298.15 K, 17600 kPa	910.84 kg/m3
298.15 K, 19500 kPa	912.59 kg/m3
308.15 K, 101.33 kPa	882.27 kg/m3 and 881.87 kg/m3

CCOC(C)=O [ethyl acetate] + BrCBr
[2]
Settings	mass density [kg/m3]
288.15 K	906.71
298.15 K	894.97
308.15 K	882.27

CCOC(C)=O [ethyl acetate] + ClCBr
[2]
Settings	mass density [kg/m3]
288.15 K	906.71
298.15 K	894.97
308.15 K	881.87

CCOC(C)=O [ethyl acetate] + ClCCBr
[2]
Settings	mass density [kg/m3]
288.15 K	906.71
298.15 K	894.97
308.15 K	882.27

CCOC(C)=O [ethyl acetate] + ClCCCl
[2]
Settings	mass density [kg/m3]
288.15 K	906.71
298.15 K	894.97
308.15 K	882.27
